# Values quoted from earlier work in patent US9498462B2, “Doxepin trans isomers and isomeric mixtures and methods of using the same to treat sleep disorders” (Pernix Sleep Inc., priority 2006, dated 2016).
# Experiments:
# melatonin MT1 receptor = melatonin MT1 receptor (Homo sapiens, UniProt P48039)
# melatonin MT2 receptor = molecular target: T1, melatonin MT2 receptor (Homo sapiens, UniProt P49286)
# T1 sequence (P49286 1-362): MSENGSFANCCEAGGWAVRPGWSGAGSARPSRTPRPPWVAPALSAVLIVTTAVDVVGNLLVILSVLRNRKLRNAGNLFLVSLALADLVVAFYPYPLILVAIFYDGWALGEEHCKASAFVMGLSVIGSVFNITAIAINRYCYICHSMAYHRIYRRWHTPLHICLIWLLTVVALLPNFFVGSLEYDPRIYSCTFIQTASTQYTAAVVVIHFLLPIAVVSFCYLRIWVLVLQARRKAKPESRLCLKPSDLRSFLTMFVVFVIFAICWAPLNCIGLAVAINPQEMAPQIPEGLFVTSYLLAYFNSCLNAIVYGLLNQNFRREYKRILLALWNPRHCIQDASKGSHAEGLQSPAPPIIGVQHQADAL
# melatonin MT1 receptor, sequence (P48039 whole entry): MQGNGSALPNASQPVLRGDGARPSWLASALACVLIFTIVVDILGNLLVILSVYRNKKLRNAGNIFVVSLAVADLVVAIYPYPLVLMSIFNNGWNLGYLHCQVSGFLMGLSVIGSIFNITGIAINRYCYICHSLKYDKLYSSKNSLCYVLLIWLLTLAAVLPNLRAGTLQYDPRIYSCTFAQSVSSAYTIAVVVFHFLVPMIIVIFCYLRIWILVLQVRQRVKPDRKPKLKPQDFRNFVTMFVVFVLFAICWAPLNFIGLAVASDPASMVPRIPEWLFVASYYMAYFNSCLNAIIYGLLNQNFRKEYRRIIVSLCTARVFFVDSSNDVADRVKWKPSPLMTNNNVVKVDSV
structure (smiles),measurement,setting,value
"CCC(=O)NCC[C@@H]1CCc2ccc3c(c21)CCO3 [Ramelteon, (S)—N-[2-(1,6,7,8-tetrahydro-2H-indeno-[5,4-b]furan-8-yl)ethyl]propionamide]",affinity for melatonin MT1 receptor,melatonin MT1 receptor,high affinity
same,affinity for melatonin MT2 receptor,melatonin MT2 receptor,high affinity
